Measurements from ChEMBL document CHEMBL4834394, “Neobulgarones Revisited: Anti and Syn Bianthrones from an Australian Mud Dauber Wasp Nest-Associated Fungus, Penicillium sp. CMB-MD22” (J Nat Prod, 2021).
Active and inactive are the calls of the source. The rule behind the calls is not given here.

Legend:
Staphylococcus aureus = assay: Antibacterial activity against Staphylococcus aureus ATCC 25923 assessed as inhibition of bacterial growth incubated for 24 hrs; type: functional, organism-based; settings: ATCC 25923, 24 h
[1] = target: ATP-dependent translocase ABCB1 (Homo sapiens, UniProt P08183); assay: Reversal of P-gp mediated doxorubicin resistance in human SW620 Ad300 cells overexpressing P-gp at 30 uM after 48 hrs by MTT assay; type: cell-based; settings: sw-620, 48 h
Sequence of ATP-dependent translocase ABCB1 (P08183 whole entry): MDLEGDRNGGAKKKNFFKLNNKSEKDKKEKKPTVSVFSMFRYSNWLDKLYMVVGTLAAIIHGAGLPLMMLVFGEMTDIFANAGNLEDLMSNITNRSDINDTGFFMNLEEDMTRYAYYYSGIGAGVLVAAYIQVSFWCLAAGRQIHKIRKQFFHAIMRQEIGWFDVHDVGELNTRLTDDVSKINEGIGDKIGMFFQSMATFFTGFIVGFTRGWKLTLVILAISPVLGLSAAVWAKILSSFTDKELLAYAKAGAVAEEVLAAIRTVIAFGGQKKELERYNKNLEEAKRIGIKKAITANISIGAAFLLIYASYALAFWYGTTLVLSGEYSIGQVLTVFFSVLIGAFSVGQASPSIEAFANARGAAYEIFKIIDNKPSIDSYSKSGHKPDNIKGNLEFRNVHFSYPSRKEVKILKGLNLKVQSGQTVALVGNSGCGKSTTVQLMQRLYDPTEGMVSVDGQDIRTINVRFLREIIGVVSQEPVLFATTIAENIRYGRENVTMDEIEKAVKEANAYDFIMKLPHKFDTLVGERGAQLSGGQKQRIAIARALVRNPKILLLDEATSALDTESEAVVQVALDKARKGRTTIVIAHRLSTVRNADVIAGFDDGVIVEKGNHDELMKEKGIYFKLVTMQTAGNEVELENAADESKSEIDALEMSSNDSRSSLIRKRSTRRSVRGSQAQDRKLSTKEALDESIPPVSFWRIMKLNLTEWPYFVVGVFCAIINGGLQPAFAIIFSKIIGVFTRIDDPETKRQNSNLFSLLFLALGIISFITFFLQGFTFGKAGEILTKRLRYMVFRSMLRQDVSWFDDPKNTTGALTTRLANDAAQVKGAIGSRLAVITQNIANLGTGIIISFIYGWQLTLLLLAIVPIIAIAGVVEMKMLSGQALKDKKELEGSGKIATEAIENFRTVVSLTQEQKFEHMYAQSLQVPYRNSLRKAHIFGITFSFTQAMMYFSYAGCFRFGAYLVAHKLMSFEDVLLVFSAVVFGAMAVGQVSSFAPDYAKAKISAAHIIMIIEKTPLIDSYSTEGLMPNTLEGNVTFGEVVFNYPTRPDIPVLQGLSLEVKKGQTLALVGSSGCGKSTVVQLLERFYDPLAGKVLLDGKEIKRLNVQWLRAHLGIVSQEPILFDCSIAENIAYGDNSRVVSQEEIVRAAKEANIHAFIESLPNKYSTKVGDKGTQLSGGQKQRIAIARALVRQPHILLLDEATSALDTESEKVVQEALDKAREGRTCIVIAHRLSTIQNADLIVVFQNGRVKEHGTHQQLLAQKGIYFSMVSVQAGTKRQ

Candida albicans = assay: Antifungal activity against Candida albicans ATCC 10231 assessed as inhibition of fungal growth incubated for 24 hrs; type: functional, organism-based; settings: ATCC 10231, 24 h
SW-620 = assay: Cytotoxicity against human SW620 cells after 48 hrs by MTT assay; type: functional, cell-based
Escherichia coli = assay: Antibacterial activity against Escherichia coli ATCC 11775 assessed as inhibition of bacterial growth incubated for 24 hrs; type: functional, organism-based; settings: ATCC 11775, 24 h

SMILES	Activity [1]	IC50 (Staphylococcus aureus)	IC50 (Candida albicans)	Activity (SW-620)	IC50 (Escherichia coli)
COc1cc(C)cc2c1C(=O)c1c(O)c(OC)c(O)c(Cl)c1[C@@H]2[C@@H]1c2cc(C)cc(OC)c2C(=O)c2c(O)c(OC)c(O)c(Cl)c21	Not Active	> 30 µM	> 30 µM	inactive	> 30 µM
COc1cc(CO)cc2c1C(=O)c1c(O)cc(O)cc1C2=O [CARVIOLIN]	Not Active	> 30 µM	> 30 µM	inactive	> 30 µM
COc1cc(C)cc2c1C(=O)c1c(O)cc(O)c(Cl)c1[C@@H]2[C@H]1c2cc(C)cc(OC)c2C(=O)c2c(O)cc(O)c(Cl)c21	Not Active	> 30 µM	> 30 µM	inactive	> 30 µM
COc1cc(C)cc2c1C(=O)c1c(O)c(OC)c(O)c(Cl)c1[C@@H]2[C@H]1c2cc(C)cc(OC)c2C(=O)c2c(O)cc(O)c(Cl)c21	Not Active	> 30 µM	> 30 µM	inactive	> 30 µM
COc1cc(C)cc2c1C(=O)c1c(O)cc(O)c(Cl)c1[C@@H]2[C@@H]1c2cc(C)cc(OC)c2C(=O)c2c(O)c(OC)c(O)c(Cl)c21	Not Active	> 30 µM	> 30 µM	inactive	> 30 µM
COc1cc(C)cc2c1C(=O)c1c(O)c(OC)c(O)c(Cl)c1[C@@H]2[C@H]1c2cc(C)cc(OC)c2C(=O)c2c(O)c(OC)c(O)c(Cl)c21	Not Active	> 30 µM	> 30 µM	inactive	> 30 µM
COc1cc(CO)cc2c1C(=O)c1c(cc(O)c(OC)c1O)C2=O	Not Active	> 30 µM	> 30 µM	inactive	> 30 µM
COc1cc(C)cc2c1C(=O)c1c(cc(O)c(OC)c1O)[C@@H]2[C@@H]1c2cc(C)cc(OC)c2C(=O)c2c(O)c(OC)c(O)c(Cl)c21	Not Active	> 30 µM	> 30 µM	inactive	> 30 µM
COc1cc(C)cc2c1C(=O)c1c(cc(O)c(OC)c1O)[C@@H]2[C@@H]1c2cc(C)cc(OC)c2C(=O)c2c(O)cc(O)c(Cl)c21	Not Active	> 30 µM	> 30 µM	inactive	> 30 µM
COc1cc(C)cc2c1C(=O)c1c(O)cc(O)cc1[C@@H]2[C@@H]1c2cc(C)cc(OC)c2C(=O)c2c(O)c(OC)c(O)c(Cl)c21	Not Active	> 30 µM	> 30 µM	inactive	> 30 µM
COc1cc(C)cc2c1C(=O)c1c(cc(O)c(OC)c1O)[C@H]2[C@@H]1c2cc(C)cc(OC)c2C(=O)c2c(O)cc(O)c(Cl)c21	Not Active	> 30 µM	> 30 µM	inactive	> 30 µM

The next lines start with results.

Activity [1]	SMILES	IC50 (Staphylococcus aureus)	IC50 (Candida albicans)	Activity (SW-620)	IC50 (Escherichia coli)
Not Active	COc1cc(C)cc2c1C(=O)c1c(O)cc(O)c(Cl)c1C2O (stereo not given)	> 30 µM	> 30 µM	inactive	> 30 µM
Not Active	COc1cc(C)cc2c1C(=O)c1c(O)cc(O)cc1[C@@H]2[C@@H]1c2cc(C)cc(OC)c2C(=O)c2c(O)cc(O)c(Cl)c21	> 30 µM	> 30 µM	inactive	> 30 µM
Not Active	COc1cc(C)cc2c1C(=O)c1c(O)cc(O)c(Cl)c1[C@@H]2[C@@H]1c2cc(C)cc(OC)c2C(=O)c2c(O)cc(O)c(Cl)c21	> 30 µM	> 30 µM	inactive	> 30 µM
Not Active	COc1cc(C)cc2c1C(=O)c1c(O)cc(O)cc1C2=O [1-O-METHYLEMODIN]	> 30 µM	> 30 µM	inactive	> 30 µM
Not Active	COc1cc(C)cc2c1C(=O)c1c(cc(O)c(OC)c1O)C2=O	> 30 µM	> 30 µM	inactive	> 30 µM
